Laboratory results published in patent US10064865B2, “Composition comprising phosphodiesterase type 5 inhibitor for inhibiting apoptosis of nerve cells” (ARIBIO INC., priority 2012, dated 2018).
Marks after values point to notes of the source that are not given here.

Legend:
[1] = tested on: neuron apoptosis-operated rats; assay: Example 2 body swing test; type: in vivo, Sprague-Dawley (SD) rats
Protocol: Sensorimotor function was evaluated by use of limb placing (de Ryck M et al., Stroke. 20:1383-90(1989)) and body swing (Borlongan and Sanberg, J Neurosci. 15:5372-8(1995)) tests. These tests were performed at 1 and 28 days after neuron apoptosis. The investigator performing the surgery and behavioral assessments was blinded to treatment assignment.
Body swing tests: Animals were held approximately 2 cm from the base of its tail and elevated to an inch above a surface of a table. A swing was recorded whenever the rat moved its head out of the vertical axis to either side by more than 10° from vertical and then returned to the vertical position. Thirty total swings were counted per animal. After right-hemisphere neuron apoptosis, animals tend to swing to the contralateral (left) side. Thus, the numbers and percentages of body swings to the ipsilateral (right) side were recorded as a measure of recovery, with an intact animal scoring.
(§1) All data were expressed as mean±standard deviation (S.D.) of ten rats. Multiple comparison tests for different dose groups were conducted. Variance homogeneity was examined using the Levene test (Levene A, Clin Otalary, 1981; 6:145-51). […] Statistical analyses were conducted using SPSS for Windows (Release 14K, SPSS Inc., USA; Ludbrook, Clin Exp Pharmacol Physiol, 1997; 24:294-6). In addition, the percent changes as compared with neuron apoptosis control and mirodenafil treated rats were calculated to help the understanding of the efficacy of test substances as follow Equation 6 and 7. Percentage Changes as Compared with Sham Control (%)=[((Data of neuron apoptosis control−Data of sham control rat)/Data of sham control rats)×100] [EQUATION 6] Percentage Changes as Compared with neuron apoptosis Control (%)=[((Data of test material treated rats−Data of neuron apoptosis control rats)/Data of neuron apoptosis control rats)×100] [EQUATION 7]

[2] = tested on: caspase-3; assay: Example 2 immunohistochemistry: caspase-3-immunoreactive cells; type: in vivo, Sprague-Dawley (SD) rats; conditions: for Numbers of neurons: Caspase-3+: 1 mg/kg s.c. once a day for 14 days, 29 days after neuron apoptosis
Protocol: The induction of neuron apoptosis was carried out by damaging the right hemisphere of the brain of animals. Specifically, animals were anesthetized with 2 or 3% isoflurane in the mixture of 70% N2O and 28.5% O2, and were maintained with 1 to 1.5% isoflurane in the mixture of 70% N2O and 28.5% O2. After that the temporalis muscle was bisected and reflected through an incision made midway between the eye and the eardrum canal. The proximal MCA was exposed through a subtemporal craniectomy by microdental drills without removing the zygomatic arch and without transecting the facial nerve. […] Mortality was less than 5%. For sham control, all procedures were performed in the same way, with the exception of the occlusion of the MCA.
After deparaffinized of prepared […] histological paraffin sections, citrate buffer antigen (epitope) retrieval pretreatment were conducted as previously (Shi S R et al., J Histochem Cytochem. 41:1599-604(1993)). Briefly, pre-heat water bath with staining dish containing 10 mM citrate buffers (pH 6.0) until temperature reaches 95-100° C. Immerse slides in the staining dish and place the lid loosely on the staining dish. Incubate for 20 minutes and turn off the water bath. Place the staining dish at room temperature and allow the slides to cool for 20 minutes. After epitope retrievals, sections were immunostained using avidin-biotin complex (ABC) methods for caspase-3 and PARP. Endogenous peroxidase activity was blocked by incubated in methanol and 0.3% H2O2 for 30 minutes, and non-specific binding of immunoglobulin was blocked with normal horse serum blocking solution (Vector Lab., Burlingame, Calif., USA. Dilution 1:100) for 1 hr in humidity chamber. Primary antiserum were treated for overnight at 4° C. in humidity chamber, and then incubated with biotinylated universal secondary antibody (Vector Lab., Dilution 1:50) and ABC reagents (Vectastain Elite ABC Kit, Vector Lab., Dilution 1:50) for 1 hr at room temperature in humidity chamber. Finally, reacted with peroxidae substrate kit (Vector Lab.) for 3 min at room temperature. All sections were rinse in 0.01M PBS for 3 times, between steps. The neurons occupied by over 10% of immunoreactivities, the density, of each antiserum for caspase-3 and PARP were regarded as positive, and the mean numbers of caspase-3 and PARPimmunoreactive cells dispersed in the mm^2 of ipsilateral peri-infarct/defect cerebral cortex were counted using an automated image analysis process as establish methods (Lee et al., 2010; Song et al., 2012), respectively. The histopathologist was blinded to the group distribution when performing the analysis.
as §1

[3] = 1 mg/kg from 24 hrs after surgery
[4] = 1 mg/kg from 72 hrs after surgery
[5] = 1 mg/kg from 168 hrs after surgery

Which results are given for `CCCOc1ccc(S(=O)(=O)N2CCN(CCO)CC2)cc1-c1nc2c(CCC)cn(CC)c2c(=O)[nH]1` [Mirodenafil, mirodenafil]?
numbers and percentages of body swings to ipsilateral right sides at 28 days, change as compared with neuron apoptosis control [1, 3]: 82.00%; numbers and percentages of body swings to ipsilateral right sides at 28 days, change as compared with neuron apoptosis control [1, 4]: 48.00%; numbers and percentages of body swings to ipsilateral right sides at 28 days, change as compared with neuron apoptosis control [1, 5]: 14.00%; numbers of caspase-3-immunoreactive neurons at 29 days, change as compared with neuron apoptosis control [2, 3]: −57.29%; numbers of caspase-3-immunoreactive neurons at 29 days, change as compared with neuron apoptosis control [2, 4]: −40.63%; numbers of caspase-3-immunoreactive neurons at 29 days, change as compared with neuron apoptosis control [2, 5]: −15.57%; Numbers of neurons: Caspase-3+ ([2]; start 24 hrs after operation): 30.01 ± 4.90^ab cells/mm^2 of cerebral cortex; Numbers of neurons: Caspase-3+ ([2]; start 72 hrs after operation): 41.71 ± 6.34^ab cells/mm^2 of cerebral cortex; Numbers of neurons: Caspase-3+ ([2]; start 168 hrs after operation): 59.33 ± 5.13^a cells/mm^2 of cerebral cortex
